Assay results taken from patent US6534283B1, “Method for treatment and prevention of physiological shock” (The Regents of the University of California, priority 1999, dated 2003).

Legend:
Human neutrophils (PMNs) = assay: Neutrophil activation (pseudopod formation) by pancreatic homogenate prepared with protease inhibitors; assay type: cell-based; settings: for ability of the homogenate to stimulate neutrophil activation: pancreas homogenized in the presence of protease inhibitor
Procedure: The organs were immediately washed in cold 0.25 M sucrose solution, homogenized in Krebs-Henseleit solution (1:3 w/v), and the homogenate was diluted (1:2 v/v Krebs-Henseleit), following the protocol established by Glen and Lefer (Circ. Res., 1971). This homogenate served as the stock solution for all experiments. Aliquots were heated for 2.5 hours at 38° C. with mild stirring and the supernatant collected after centrifugation at 500 g for 10 min. Incubation of tissue homogenates at 38° C. promotes enzymatic activity and enhances production of the cellular activation factors.
Neutrophils were isolated from venous blood collected from healthy human volunteers in heparinized vacutainer tubes and stored at 4° C. Human neutrophils (PMNs) were used in these studies after it was shown in pilot studies that the rat organ extracts stimulated activation of both human and rat neutrophils to a similar degree.
Neutrophil isolation was carried out using gravity sedimentation to remove erythrocytes and centrifugation through a Percoll gradient. Isolated neutrophils were resuspended in PBS to achieve a count of 10^6 neutrophils/ml. 100 μl aliquots of suspended neutrophils were added to 100 μl of activating agent (e.g. tissue homogenate) or PBS as a control, and incubated for 10 minutes at 27° C. After incubation, 100 μl of 3% glutaraldehyde (Fisher Scientific, Fair Lawn, N.J.) was added to fix the cells. 100 μl of crystal violet in phosphate (pH: 7.4) buffer was added to label leukocyte nuclei for identification on wet mount preparations. Freely suspended neutrophils with pseudopodia were identified by their segmented nuclei and by the presence of cytoplasmic granules. One hundred neutrophils were counted per slide. Cells having pseudopod projections greater than about 1 μm were considered positive.
To determine if pancreatic homogenates could induce a “systemic response” in vitro, non-pancreatic tissues were incubated with substimulatory quantities of pancreatic homogenate (100 μl pancreatic homogenate/3 ml organ homogenate). […] As the pancreas produces a number of digestive enzymes, including proteases, a cocktail of trypsin and chymotrypsin was added to non-pancreatic tissue and the neutrophil activation assays were performed.

serine protease = assay: Serine protease activity of intestinal fluid during intestinal perfusion and splanchnic ischemia; assay type: in vivo, rat; settings: intestinal perfusion 0.2 mg/ml
Procedure: (§1) The small intestine of rats was perfused at a constant flow rate (4.0 ml/min) with 45 ml of rat intestinal fluid supplemented with 5 ml of 5% glucose (IF) or 50 ml of saline with 0.1% glucose (SAL) or with ANDG at a final concentration of 0.2 mg/ml. The perfusate was recirculated continuously throughout the entire procedure. After 15 min of intestinal perfusion, the animals were subjected to […]. of splanchnic ischemia, which was confirmed by cyanotic organ discoloration and loss of the pressure pulsation in the mesentery.
The process of shock was monitored by a number of methods in various tissues throughout the body. Intestinal fluid was analyzed for serine protease activity. One milliliter of circulating fluid in the intestine was collected from the reservoir before ischemia and 90 min after ischemia. […] After 90 min of ischemia, the serine protease activity levels in the IF, SAL, and ANGD groups were 5.6±2.3×10^3 units/ml, 3.3±2.3×10^3 units/ml, and 1.2±0.2×10^3 units/ml, respectively. Intestinal perfusion with ANGD kept the serine protease activity lower than in the other two groups (p<0.05, SAL vs. ANGD; p<0.01 ANGD vs. IF and SAL groups).

rats [1] = assay: Splanchnic ischemia/reperfusion shock with perfusion of the lumen of the small intestine; assay type: in vivo, rat
Procedure: as §1
Arterial and portal venous blood (0.3 ml each) were sampled before ischemia, after 90 min of ischemia, and 30, 60, and 120 min postreperfusion. The samples were analyzed for leukocyte count and activation based on crystal violet staining. In the preischemic period, the leukocyte counts were the same in all three groups. In the IF And SAL groups, the leukocyte count in arterial blood started to decrease after ischemia and reached its lowest value 120 min after reperfusion. […] Similarly, ANGD was able to inhibit the activation of circulating neutrophils (15.0±1.6%) as compared to both IF (23.3±1.0%, p<0.05) and SAL (25.0±1.6%, p<0.05) at 120 minutes post-perfusion.
Myeloperoxidase activity was used as a marker for assessment of leukocyte infiltration into the small intestine, liver, and lung. Tissue myeloperoxidase levels were determined by a spectrophotometric method. At 120 minutes of reperfusion, myeloperoxidase levels were increased in intestine (36.1±3.9 U/g to 309.3±51.0 U/g), liver (0.4±0.1 U/g to 2.6±0.3 U/g), and lung (29.0±4.4 U/g to 199.2±33.9 U/g). This is an early indicator of leukocyte infiltration and organ failure in shock.
Thickness of the intestinal mucosa was used as an indicator of damage to the intestine. A sample of small intestine was longitudinally dissected, fixed in 10% buffered formalin, and embedded in paraffin. Five-micrometer sections were made and stained with hematoxylin and eosin and examined at 200× magnification. Severity of intestinal injury was estimated by the length between the tip of the villi and the musculus mucosae, a measure of mucosal layer thickness. In each specimen, the measurement was made at 10 randomly selected locations and averaged. Intestinal perfusion of protease inhibitor served to maintain mucosal thickness and to reduce intestinal injury (IF 252.0±34.0 […]).
The level of edematous lung injury was assayed by a pulmonary wet/dry ratio. Lung lobes were harvested, wet weight was determined and samples were dried at 70° C. for 72 hours. The dried tissue was weighed, and the ratio of wet to dried weight was calculated. Edema was much greater in the IF (5.65±0.33) and SAL (4.88±0.39) groups as compared to the ANGD (3.66±0.27) group which was similar to non-shock controls.

rats [2] = assay: Shock induced by bolus injection of pancreatic homogenate, with or without ANGD infusion; assay type: in vivo, rat; settings: one hour i.v. pretreatment 3.3 mg/kg body wt per hour, then pancreatic homogenate bolus
Procedure: Rats were cannulated via the femoral arteries and veins under general anesthesia (pentobarbital, 50 mg/kg i.m.) and saline, without or with ANGD, was infused to examine the response of the circulation after administration of pancreatic homogenate. The arterial catheter served to record mean arterial pressure (MAP) and heart rate. […] No heparin was injected other than that needed to maintain open catheters (10 U/ml Plasma-Lyte, Travenol Laboratory Inc., Deerfield, Ill.). After a one hour pretreatment, a bolus injection of filtered (0.78 μm vacuum filter, Millipore) stock pancreatic homogenate was administered (2 ml). The extent to which pancreatic homogenate induced hypotension and circulatory shock, both in the presence and absence of ANGD, was examined.

| SMILES | ability of the homogenate to stimulate neutrophil activation (Human neutrophils (PMNs)) | serine protease activity level in the intestine (serine protease; after 90 min of ischemia, IF 5.6±2.3×10^3, SAL 3.3±2.3×10^3) | serine protease activity level in the intestine (serine protease; before ischemia, IF=5.8±1.8×10^3, SAL=2.0±0.9×10^3) | myeloperoxidase activity in liver (rats [1]; 120 minutes of reperfusion, without inhibitor 2.6±0.3 U/g) [U/g] | myeloperoxidase activity in lung (rats [1]; 120 minutes of reperfusion, without inhibitor 199.2±33.9 U/g) [U/g] | myeloperoxidase activity in intestine (rats [1]; 120 minutes of reperfusion, without inhibitor 309.3±51.0 U/g) [U/g] | activation of circulating neutrophils (rats [1]; 120 minutes post-perfusion, IF 23.3±1.0%, SAL 25.0±1.6%) [%] | pulmonary wet/dry ratio (edematous lung injury) (rats [1]; IF 5.65±0.33, SAL 4.88±0.39) | leukopenia (leukocyte count in arterial blood) (rats [1]; intestinal perfusion 0.2 mg/ml, after ischemia up to 120 min after reperfusion) | mucosal thickness (tip of the villi to musculus mucosae) (rats [1]; small intestine, IF 252.0±34.0) [µm] | death within the 60 minute post-injection observation period (rats [2]) | time for MAP and heart rate to return to normal levels (rats [2]) [min] | neutrophil activation (Human neutrophils (PMNs); pancreas homogenized in presence of inhibitor, untreated extract 59±10%) [%] |
| --- | --- | --- | --- | --- | --- | --- | --- | --- | --- | --- | --- | --- | --- |
| CCOC(=O)c1ccc(OC(=O)CCCCCN=C(N)N)cc1.CS(=O)(=O)O [FOY, gabaxalate mesilate] | significantly decreased | – | – | – | – | – | – | – | – | – | – | – | – |
| N=C(N)c1ccc2cc(OC(=O)c3ccc(N=C(N)N)cc3)ccc2c1 [ANGD, 6-amidino-2napthyl p-guanidobenzoate dimethane-sulfate] | significantly decreased | 1.2±0.2×10^3 units/ml | 1.2±0.1×10^3 units/ml | 1.0±0.1 | 87.0±13.4 | 62.5±19.8 | 15.0±1.6 | 3.66±0.27 | completely ameliorated leukopenia | 378 ± 38 | none of these animals died | ≤ 20 | 9±12 |
| O=S(=O)(F)Cc1ccccc1 [PMSF, phenylmethylsulfonylfluoride] | significantly decreased | – | – | – | – | – | – | – | – | – | – | – | – |
